From BindingDB's records for doi:10.1016/j.chembiol.2004.03.022 (Cyclacel, 2004) come the findings set out here.

Bounds are passed on as bounds.

What all share (test): Kinase Inhibition Assay
Assay [1] deals with G1/S-specific cyclin-E1 (Homo sapiens, UniProt P24864). From the text:
(§1) In vitro kinase inhibition assay.

The target in assay [2] is G1/S-specific cyclin-D1 (Homo sapiens, UniProt P24385).
Description: as §1

The target of assay [3] is Cyclin-dependent kinase 4 (Homo sapiens, UniProt P11802).
Cyclin-dependent kinase 4, sequence (P11802 whole entry): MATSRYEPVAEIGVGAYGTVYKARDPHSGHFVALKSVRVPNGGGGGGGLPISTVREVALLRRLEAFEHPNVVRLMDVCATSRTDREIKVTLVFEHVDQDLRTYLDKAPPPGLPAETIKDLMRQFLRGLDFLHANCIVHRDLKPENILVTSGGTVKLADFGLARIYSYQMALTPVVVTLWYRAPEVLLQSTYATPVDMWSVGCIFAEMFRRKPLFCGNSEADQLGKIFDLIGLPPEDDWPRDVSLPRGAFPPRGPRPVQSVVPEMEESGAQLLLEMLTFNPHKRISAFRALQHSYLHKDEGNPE
Description: as §1

The target of assay [4] is Cyclin-dependent kinase 2 (Homo sapiens, UniProt P24941).
Description: as §1

G1/S-specific cyclin-D1, sequence (P24385 whole entry): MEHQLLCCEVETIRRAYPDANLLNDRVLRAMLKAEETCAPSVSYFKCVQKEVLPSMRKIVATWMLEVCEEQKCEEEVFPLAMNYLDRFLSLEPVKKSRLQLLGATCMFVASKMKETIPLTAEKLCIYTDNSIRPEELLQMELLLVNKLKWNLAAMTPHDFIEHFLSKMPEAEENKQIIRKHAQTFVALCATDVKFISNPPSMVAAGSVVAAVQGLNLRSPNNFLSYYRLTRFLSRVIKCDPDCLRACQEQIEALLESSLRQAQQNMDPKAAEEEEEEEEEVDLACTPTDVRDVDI
G1/S-specific cyclin-E1, sequence (P24864 whole entry): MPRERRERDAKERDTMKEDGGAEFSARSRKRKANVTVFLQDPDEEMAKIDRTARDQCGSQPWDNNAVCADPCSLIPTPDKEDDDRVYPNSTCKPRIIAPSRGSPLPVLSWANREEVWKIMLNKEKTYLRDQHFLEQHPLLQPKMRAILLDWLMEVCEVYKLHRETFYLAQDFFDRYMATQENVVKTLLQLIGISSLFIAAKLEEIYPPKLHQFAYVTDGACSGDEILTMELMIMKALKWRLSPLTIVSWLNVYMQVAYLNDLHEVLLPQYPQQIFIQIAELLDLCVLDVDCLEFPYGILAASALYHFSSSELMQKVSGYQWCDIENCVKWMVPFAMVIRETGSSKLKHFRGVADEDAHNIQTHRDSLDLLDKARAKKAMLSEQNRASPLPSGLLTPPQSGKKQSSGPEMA

For `CNc1nc(C)c(-c2ccnc(Nc3cccc(CN)c3)n2)s1` [Aminopyrimidine, 1], the IC50 amounted to 410 nM in assay [1] and 230 nM in assay [2].
As to `Cc1nc(C)c(-c2ccnc(Nc3ccc(N4CCN(C)CC4)cc3)n2)s1` [Aminopyrimidine, 7], the IC50 in assay [1] was 1020 nM; in assay [2], 160 nM.
The matching figures for `CCNc1nc(C)c(-c2ccnc(Nc3cccc(CN)c3)n2)s1` [Aminopyrimidine, 2]: 330 nM and 110 nM.
The matching figures for `Cc1nc(C)c(-c2ccnc(Nc3ccc(N)cc3)n2)s1` [Aminopyrimidine, 4]: 230 nM and 3800 nM.
The matching figures for `Cc1nc(C)c(-c2ccnc(Nc3ccc(N4CCNCC4)cc3)n2)s1` [Aminopyrimidine, 6]: 1100 nM and 640 nM.
For `COc1ccc(OC)c2c(=S)c3ccccc3[nH]c12` [NSC625987], the values for the IC50 in assay [3] and in assay [4] were 200 nM and greater than 100000 nM, respectively.
Take `O=C1c2ccccc2-[n+]2ccc3c([nH]c4ccccc43)c21`: the IC50 was 350 nM in assay [3] and greater than 50000 nM in assay [4].
In the case of `Cc1nc(C)c(-c2ccnc(Nc3ccc(N4CCN(CCO)CC4)cc3)n2)s1` [Aminopyrimidine, 8], the IC50 in assay [1] worked out at 2200 nM; in assay [2], 430 nM.
The matching figures for `Cc1nc(C)c(-c2ccnc(Nc3ccc(N4CCOCC4)cc3)n2)s1` [Aminopyrimidine, 5]: 2000 nM and 4000 nM.
Take `CNc1nc(C)c(-c2ccnc(Nc3ccc(N4CCNCC4)cc3)n2)s1` [Aminopyrimidine, 10]: half-maximal inhibition in assay [2] (IC50) was put at 7 nM. This counts as single-digit nanomolar.
With `CNc1nc(C)c(-c2ccnc(Nc3cccc(CNC(C)=O)c3)n2)s1` [Aminopyrimidine, 3], the IC50 in assay [1] is 430 nM; in assay [2], 890 nM.
Consider `Cc1nc(N)sc1-c1ccnc(Nc2ccc(N3CCOCC3)cc2)n1` [2-amino-4-methyl-1,3-thiazol-5-yl)-N-[4-(morpholin-4-yl)phenyl]pyrimidin-2-amine, 5], for which the half-maximal inhibitory concentration (IC50) in assay [2] amounted to 2400 nM.

By IC50 is commonly meant the concentration that gives 50% inhibition. A low value points to higher potency.
